Measurements reported in US20230190754A1, “Therapeutic combinations for the treatment of Progressive Fibrosing interstitial lung diseases” (Boehringer Ingelheim International GmbH, priority 2021, published 2023).
Marks after values point to notes of the source that are not given here.

System: IPF patients
Experiment: Phase II clinical trial in IPF patients: Treatment Emergent Adverse Events (safety/tolerability), up to 13 weeks
[1] = AF-group (antifibrotic background), 18 mg b.i.d.
[2] = AF-group (antifibrotic background), 18 mg b.i.d., listed as Compound of Formula III
[3] = AF-group (antifibrotic background), 18 mg b.i.d., listed as active agent
[4] = AF-group, nintedanib background medication sub-group, 18 mg b.i.d.
[5] = AF-group, nintedanib background, 18 mg b.i.d.
[6] = AF-group, nintedanib background, 18 mg b.i.d., listed as Compound of Formula III
[7] = AF-group, nintedanib background, 18 mg b.i.d., listed as active agent
[8] = AF-group, nintedanib background, 18 mg b.i.d., listed as compound of formula III
[9] = AF-group, nintedanib background, 18 mg b.i.d., males
[10] = AF-group, pirfenidone background medication sub-group, 18 mg b.i.d.
[11] = AF-group, pirfenidone background, 18 mg b.i.d.

## [O-][S@+]1CCc2nc(N3CCC(c4ncc(Cl)cn4)CC3)nc(NC3(CO)CCC3)c21 [Comp. of form. III]
AF Ninted., N = 26
  Arthralgia, %: (7.7) %
  Bronchitis, %: (3.8) %
  Condition aggravated, %: (3.8) %
  Cough, %: (7.7) %
  Decreased appetite, %: (7.7) %
  Diarrhoea, %: (46.2) %
  Dyspepsia, %: (3.8) %
  Fatigue, %: (3.8) %
  Flatulence, %: (3.8) %
  Gastrointestinal disorders, %: (46.2) %
  General Disorders and Administration Side conditions, %: (19.2) %
  Headache, %: (7.7) %
  Infections and infestations, %: (23.1) %
  Investigations, %: (26.9) %
  Metabolism and nutrition disorders, %: (11.5) %
  Musculoskeletal and connective tissue disorders, %: (7.7) %
  Nasopharyngitis, %: (15.4) %
  Nervous system disorders, %: (15.4) %
  Oedema peripheral, %: (3.8) %
  Pyrexia, %: (2.1) %
  Respiratory, thoracic and mediastinal disorders, %: (11.5) %
  Vomiting, %: (3.8) %
AF Pirf., N = 15
  Abdominal Pain, %: (4.3) %
  Asthenia, %: (4.3) %
  Condition aggravated, %: (4.3) %
  Constipation, %: (4.3) %
  Cough, %: (8.7) %
  Diarrhoea, %: (13.0) %
  Dizziness, %: (4.3) %
  Dyspepsia, %: (4.3) %
  Fatigue, %: (4.3) %
  Flatulence, %: (4.3) %
  Gastrointestinal disorders, %: (26.1) %
  General Disorders and Administration Side conditions, %: (8.7) %
  Headache, %: (4.3) %
  Infections and infestations, %: (4.3) %
  Investigations, %: (13.0) %
  Musculoskeletal and connective tissue disorders, %: (4.3) %
  Nausea, %: (4.3) %
  Nervous system disorders, %: (21.7) %
  Respiratory, thoracic and mediastinal disorders, %: (13.0) %
  Rhinorrhoea, %: (4.3) %
  Vomiting, %: (4.3) %
[1]
  AE resulting in death, patients %: (2.0) %
  AE resulting in death, patients n: 1
  AE: Abdominal pain, patients %: (2.0) %
  AE: Abdominal pain, patients n: 1
  AE: Arthralgia, patients %: (4.1) %
  AE: Arthralgia, patients n: 2
  AE: Asthenia, patients %: (2.0) %
  AE: Asthenia, patients n: 1
  AE: Bronchitis, patients %: (2.0) %
  AE: Bronchitis, patients n: 1
  AE: Condition aggravated, patients %: (4.1) %
  AE: Condition aggravated, patients n: 2
  AE: Constipation, patients %: (2.0) %
  AE: Constipation, patients n: 1
  AE: Cough, patients %: (8.2) %
  AE: Cough, patients n: 4
  AE: Decreased appetite, patients %: (4.1) %
  AE: Decreased appetite, patients n: 2
  AE: Diarrhoea, patients %: 30.6%
  AE: Diarrhoea, patients n: 15
  AE: Dizziness, patients %: (2.0) %
  AE: Dizziness, patients n: 1
  AE: Dyspepsia, patients %: (4.1) %
  AE: Dyspepsia, patients n: 2
  AE: Fatigue, patients %: (2.0) %
  AE: Fatigue, patients n: 1
  AE: Flatulence, patients %: (4.1) %
  AE: Flatulence, patients n: 2
  AE: Gastrointestinal disorders, patients %: 36.7%
  AE: Gastrointestinal disorders, patients n: 18
  AE: General disorders and administration site conditions, patients %: (14.3) %
  AE: General disorders and administration site conditions, patients n: 7
  AE: Headache, patients %: (6.1) %
  AE: Headache, patients n: 3
  AE: Infections and infestations, patients %: (14.3) %
  AE: Infections and infestations, patients n: 7
  AE: Investigations, patients %: (20.4) %
  AE: Investigations, patients n: 10
  AE: Metabolism and nutrition disorders, patients %: (6.1) %
  AE: Metabolism and nutrition disorders, patients n: 3
  AE: Musculoskeletal and connective tissue disorders, patients %: (6.1) %
  AE: Musculoskeletal and connective tissue disorders, patients n: 3
  AE: Nasopharyngitis, patients %: (8.2) %
  AE: Nasopharyngitis, patients n: 4
  AE: Nausea, patients %: (2.0) %
  AE: Nausea, patients n: 1
  AE: Nervous system disorders, patients %: (18.4) %
  AE: Nervous system disorders, patients n: 9
  AE: Oedema peripheral, patients %: (2.0) %
  AE: Oedema peripheral, patients n: 1
  AE: Pyrexia, patients %: (2.0) %
  AE: Pyrexia, patients n: 1
  AE: Respiratory, thoracic and mediastinal disorders, patients %: (12.2) %
  AE: Respiratory, thoracic and mediastinal disorders, patients n: 6
  AE: Rhinorrhoea, patients %: (2.0) %
  AE: Rhinorrhoea, patients n: 1
  AE: Vomiting, patients %: (4.1) %
  AE: Vomiting, patients n: 2
  AE: Weight decreased, patients %: (2.0) %
  AE: Weight decreased, patients n: 1
  AEs leading to discontinuation of trial drug, patients %: (20.4) %
  AEs leading to discontinuation of trial drug, patients n: 10
  Any AE, patients n: 36
  SAE: Condition aggravated, patients %: (4.1) %
  SAE: Condition aggravated, patients n: 2
  SAE: General disorders and administration side conditions, bracketed fatal event [ ]*, patients %: (2.1)]* %
  SAE: General disorders and administration side conditions, bracketed fatal event [ ]*, patients n: [1
  SAE: General disorders and administration side conditions, patients %: (4.1) %
  SAE: General disorders and administration side conditions, patients n: 2
  SAE: Nervous system disorders, patients %: (2.0) %
  SAE: Nervous system disorders, patients n: 1
  SAE: Peripheral nerve paresis, patients %: (2.0) %
  SAE: Peripheral nerve paresis, patients n: 1
  SAE: Vascular disorders, patients %: (2.0) %
  SAE: Vascular disorders, patients n: 1
  SAE: Vasculitis (fatal event), patients %: (2.0)* %
  SAE: Vasculitis (fatal event), patients n: 1
  Serious AEs (patients with ≥1 SAE), patients %: (6.1) %
  Serious AEs (patients with ≥1 SAE), patients n: 3
  Severe AEs, patients %: (4.1) %
  Severe AEs, patients n: 2
AF-group (antifibrotic background), 18 mg b.i.d., listed as Comp. of Form. III
  AE: Diarrhoea, patients %: 30.6%
[2]
  AE: Diarrhoea, patients %: (30.6) %
  AE: Gastrointestinal disorders, patients %: (36.7) %
  Any AE, patients %: (73.5) %
[3]
  AE: Diarrhoea, patients %: 30.6%
  Any AE, patients %: 73.5%
[4]
  AE: Diarrhoea, patients %: 46.2%
  AE: gastrointestinal disorder, patients %: 46.2%
[5]
  Dyspepsia leading to discontinuation of trial treatment, patients %: (3.8) %
  Dyspepsia leading to discontinuation of trial treatment, patients n: 1
  Gastrointestinal disorders leading to discontinuation of trial treatment, patients n: 4
  Patients with AEs leading to discontinuation of the trial drug, %: 26.9%
  Patients with any AE, %: 80.8%
  Patients with investigator defined drug related AEs, %: 46.2%
  Patients with other significant AEs, %: 26.9%
  Patients with pre-specified AEs of special interest, %: 0%
  Patients with serious AEs, %: 3.8%
  Patients with severe AEs, %: 3.8%
  Serious AEs: Congenital anomaly/birth defect, %: 0%
  Serious AEs: Immediately life threatening, %: 0%
  Serious AEs: Other comparable medical criteria, %: 0%
  Serious AEs: Persistent or significant disability, %: 0%
  Serious AEs: Requires or prolongs hospitalization, %: 3.8%
  Serious AEs: Results in Death, %: 0%
[6]
  Diarrhoea leading to discontinuation of trial treatment, patients %: (11.5) %
  Diarrhoea leading to discontinuation of trial treatment, patients n: 3
  Gastrointestinal disorders leading to discontinuation of trial treatment, patients %: (15.4) %
[7]
  Diarrhoea leading to discontinuation of trial treatment, patients n: 3
  Gastrointestinal disorders leading to discontinuation of trial treatment, patients %: 15.4%
[8]
  Diarrhoea leading to discontinuation of trial treatment, patients %: 11.5%
  Gastrointestinal disorders leading to discontinuation of trial treatment, patients %: 15.4%
[9]
  Moderate cases of diarrhoea, %: 2.1%
  Severe case of diarrhoea, %: 1.0%
[10]
  AE: Diarrhoea, patients %: 13.0%
  AE: gastrointestinal disorder, patients %: 26.1%
[11]
  Patients with AEs leading to discontinuation of the trial drug, %: 13.0%
  Patients with any AE, %: 65.2%
  Patients with investigator defined drug related AEs, %: 26.1%
  Patients with other significant AEs, %: 4.3%
  Patients with pre-specified AEs of special interest, %: 4.3%
  Patients with serious AEs, %: 8.7%
  Patients with severe AEs, %: 4.3%
  Serious AEs: Congenital anomaly/birth defect, %: 0%
  Serious AEs: Immediately life threatening, %: 0%
  Serious AEs: Other comparable medical criteria, %: 0%
  Serious AEs: Persistent or significant disability, %: 0%
  Serious AEs: Requires or prolongs hospitalization, %: 8.7%
  Serious AEs: Results in Death, %: 4.3%
AF-group, pirfenidone background, 18 mg b.i.d., listed as active agent
  Gastrointestinal disorders leading to discontinuation of trial treatment, patients (in words): not a single patient
AF-group, pirfenidone background, 18 mg b.i.d., listed as compound of formula III
  Gastrointestinal disorders leading to discontinuation of trial treatment, patients (in words): no discontinuations of the trial treatment at all
Non-AF+AF total, 18 mg b.i.d.
  AE resulting in death, patients %: (2.1) %
  AE resulting in death, patients n: 2
  AE: Abdominal pain, patients %: (2.1) %
  AE: Abdominal pain, patients n: 2
  AE: Arthralgia, patients %: (2.1) %
  AE: Arthralgia, patients n: 2
  AE: Asthenia, patients %: (4.1) %
  AE: Asthenia, patients n: 4
  AE: Bronchitis, patients %: (2.1) %
  AE: Bronchitis, patients n: 2
  AE: Condition aggravated, patients %: (2.1) %
  AE: Condition aggravated, patients n: 2
  AE: Constipation, patients %: (2.1) %
  AE: Constipation, patients n: 2
  AE: Cough, patients %: (7.2) %
  AE: Cough, patients n: 7
  AE: Decreased appetite, patients %: (3.1) %
  AE: Decreased appetite, patients n: 3
  AE: Diarrhoea, patients %: (23.7) %
  AE: Diarrhoea, patients n: 23
  AE: Dizziness, patients %: (2.1) %
  AE: Dizziness, patients n: 2
  AE: Dyspepsia, patients %: (5.2) %
  AE: Dyspepsia, patients n: 5
  AE: Dyspnoea, patients %: (3.1) %
  AE: Dyspnoea, patients n: 3
  AE: Fatigue, patients %: (3.1) %
  AE: Fatigue, patients n: 3
  AE: Flatulence, patients %: (5.2) %
  AE: Flatulence, patients n: 5
  AE: Gastrointestinal disorders, patients %: (32.0) %
  AE: Gastrointestinal disorders, patients n: 31
  AE: General disorders and administration site conditions, patients %: (16.5) %
  AE: General disorders and administration site conditions, patients n: 16
  AE: Headache, patients %: (6.2) %
  AE: Headache, patients n: 6
  AE: Infections and infestations, patients %: (14.4) %
  AE: Infections and infestations, patients n: 14
  AE: Investigations, patients %: (15.5) %
  AE: Investigations, patients n: 15
  AE: Metabolism and nutrition disorders, patients %: (4.1) %
